Values joined by “and” are separate entries in the source; they are usually repeats but may differ in a detail not shown here. Equal entries are not always repeated. Records with an inconclusive call do not appear.
System: CD8F1 mice, subcutaneous mammary adenocarcinoma, T/C%
Assay: NCI In Vivo Anticancer Drug Screen. Data for tumor model Mammary Adenocarcinoma CD8F1 (subcutaneous) in CD8F1
Conditions: higher = larger tumour
Outline: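 Transplantable tumors were established in mice, animals were dosed with compound or vehicle, and survival or tumor size was then measured in both groups. The treated result was divided by the control result.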

[1] = endpoint: median tumor weight (est.), dose: 12.5 mg/kg/injection, schedule: Q07DX005 (ip), vehicle: suspension in saline
[2] = endpoint: median tumor weight (est.), dose: 25.0 mg/kg/injection, schedule: Q07DX005 (ip), vehicle: suspension in saline
[3] = endpoint: median tumor weight (est.), dose: 12.5 mg/kg/injection, schedule: Q07DX005 (ip), vehicle: saline with Tween-80
[4] = endpoint: median tumor weight (est.), dose: 25.0 mg/kg/injection, schedule: Q07DX005 (ip), vehicle: saline with Tween-80
[5] = endpoint: median tumor weight (est.), dose: 50.0 mg/kg/injection, schedule: Q07DX005 (ip), vehicle: saline with Tween-80
[6] = endpoint: median tumor weight (est.), dose: 100.0 mg/kg/injection, schedule: Q07DX005 (ip), vehicle: saline with Tween-80
[7] = endpoint: median tumor weight (est.), dose: 400.0 mg/kg/injection, schedule: Q07DX005 (ip), vehicle: saline with Tween-80
[8] = endpoint: median tumor weight (est.), dose: 12.5 mg/kg/injection, schedule: Q07DX004 (ip), vehicle: saline
[9] = endpoint: median tumor weight (est.), dose: 25.0 mg/kg/injection, schedule: Q07DX004 (ip), vehicle: saline
[10] = endpoint: median tumor weight (est.), dose: 50.0 mg/kg/injection, schedule: Q07DX004 (ip), vehicle: saline

COc1ccc(CC2C(=O)NC(C)C(=O)N(C)C3Cc4ccc(cc4)Oc4cc(ccc4O)CC(C(=O)NC(C)C(=O)NC(C)C(=O)N2C)N(C)C3=O)cc1 (stereo not given)
T/C (endpoint: median tumor weight change, dose: 1.25 mg/kg/injection, schedule: Q01DX001 (ip), vehicle: saline with Tween-80): 55 % of control
T/C (endpoint: median tumor weight change, dose: 2.5 mg/kg/injection, schedule: Q01DX001 (ip), vehicle: saline with Tween-80): 111 % of control
T/C (endpoint: median tumor weight change, dose: 5.0 mg/kg/injection, schedule: Q01DX001 (ip), vehicle: saline with Tween-80): 115 % of control
T/C (endpoint: median tumor weight change, dose: 10.0 mg/kg/injection, schedule: Q01DX001 (ip), vehicle: saline with Tween-80): 56 % of control
T/C (endpoint: median tumor weight change, dose: 20.0 mg/kg/injection, schedule: Q01DX001 (ip), vehicle: saline with Tween-80): 81 % of control

Nc1ccc2nc3ccc(N)cc3[n+](-c3ccccc3)c2c1
T/C (endpoint: median tumor weight (est.), dose: 6.25 mg/kg/injection, schedule: Q07DX005 (ip), vehicle: Klucel (hydroxypropylcellulose) (HPC)): 90 % of control
T/C (endpoint: median tumor weight (est.), dose: 6.25 mg/kg/injection, schedule: Q07DX005 (ip), vehicle: suspension in saline): 72 % of control
T/C (endpoint: median tumor weight (est.), dose: 12.5 mg/kg/injection, schedule: Q07DX005 (ip), vehicle: Klucel (hydroxypropylcellulose) (HPC)): 35 % of control
T/C [1]: 64 % of control
T/C (endpoint: median tumor weight (est.), dose: 25.0 mg/kg/injection, schedule: Q07DX005 (ip), vehicle: Klucel (hydroxypropylcellulose) (HPC)): 80 % of control
T/C [2]: 95 % of control
T/C (endpoint: median tumor weight (est.), dose: 50.0 mg/kg/injection, schedule: Q07DX005 (ip), vehicle: Klucel (hydroxypropylcellulose) (HPC)): 45 % of control

Nc1n[n+](-c2ccc(Cl)cc2)no1
T/C (endpoint: median tumor weight (est.), dose: 6.25 mg/kg/injection, schedule: Q07DX005 (ip), vehicle: water): 184 % of control
T/C (endpoint: median tumor weight (est.), dose: 12.5 mg/kg/injection, schedule: Q07DX005 (ip), vehicle: water): 103 % of control
T/C (endpoint: median tumor weight (est.), dose: 25.0 mg/kg/injection, schedule: Q07DX005 (ip), vehicle: water): 88 % of control

NC(=O)/C=C/c1c[nH]c2nccnc12
T/C (endpoint: median tumor weight change, dose: 31.25 mg/kg/injection, schedule: Q01DX001 (ip), vehicle: water): 124 % of control
T/C (endpoint: median tumor weight change, dose: 62.5 mg/kg/injection, schedule: Q01DX001 (ip), vehicle: water): 73 % of control
T/C (endpoint: median tumor weight change, dose: 125.0 mg/kg/injection, schedule: Q01DX001 (ip), vehicle: water): 58 % of control

CCCCCC[Se][Se]CCCCCC
T/C (endpoint: median tumor weight change, dose: 31.25 mg/kg/injection, schedule: Q01DX001 (ip), vehicle: Klucel (hydroxypropylcellulose) (HPC)): 116 % of control
T/C (endpoint: median tumor weight change, dose: 62.5 mg/kg/injection, schedule: Q01DX001 (ip), vehicle: Klucel (hydroxypropylcellulose) (HPC)): 159 % of control

NC(=S)N/N=C/c1ccc(OC(=O)COc2ccccc2)cn1
T/C (endpoint: mean tumor weight, dose: 12.5 mg/kg/injection, schedule: Q07DX005 (ip), vehicle: saline with Tween-80): 99 % of control
T/C (endpoint: mean tumor weight, dose: 12.5 mg/kg/injection, schedule: Q07DX006 (ip), vehicle: saline with Tween-80): 96 % of control
T/C (endpoint: mean tumor weight, dose: 25.0 mg/kg/injection, schedule: Q07DX005 (ip), vehicle: saline with Tween-80): 89 % of control
T/C (endpoint: mean tumor weight, dose: 25.0 mg/kg/injection, schedule: Q07DX006 (ip), vehicle: saline with Tween-80): 106 % of control
T/C (endpoint: mean tumor weight, dose: 50.0 mg/kg/injection, schedule: Q07DX005 (ip), vehicle: saline with Tween-80): 86 % of control
T/C (endpoint: mean tumor weight, dose: 50.0 mg/kg/injection, schedule: Q07DX006 (ip), vehicle: saline with Tween-80): 83 % of control
T/C (endpoint: mean tumor weight, dose: 100.0 mg/kg/injection, schedule: Q07DX005 (ip), vehicle: saline with Tween-80): 52 % of control
T/C (endpoint: mean tumor weight, dose: 100.0 mg/kg/injection, schedule: Q07DX006 (ip), vehicle: saline with Tween-80): 101 % of control
T/C (endpoint: mean tumor weight, dose: 200.0 mg/kg/injection, schedule: Q07DX005 (ip), vehicle: saline with Tween-80): 65 % of control
T/C (endpoint: mean tumor weight, dose: 200.0 mg/kg/injection, schedule: Q07DX006 (ip), vehicle: saline with Tween-80): 33 % of control

CCOC(=O)[C@]1(Br)CC[C@@]1(Br)C(=O)OCC
T/C [3]: 117 % of control
T/C [4]: 102 % of control
T/C [5]: 95 % of control
T/C [6]: 112 % of control
T/C (endpoint: median tumor weight (est.), dose: 200.0 mg/kg/injection, schedule: Q07DX005 (ip), vehicle: saline with Tween-80): 95 % of control
T/C [7]: 105 % of control

O=CC(S)CO (stereo not given)
T/C [1]: 165 % of control
T/C [2]: 231 % of control and 88 % of control
T/C (endpoint: median tumor weight (est.), dose: 50.0 mg/kg/injection, schedule: Q07DX005 (ip), vehicle: suspension in saline): 112 % of control
T/C (endpoint: median tumor weight (est.), dose: 200.0 mg/kg/injection, schedule: Q07DX005 (ip), vehicle: suspension in saline): 102 % of control

CCOC(=O)c1ccc(NN=NCCF)cc1
T/C (endpoint: median tumor weight change, dose: 15.6 mg/kg/injection, schedule: Q01DX001 (ip), vehicle: distilled water + Tween-80): 80 % of control
T/C (endpoint: median tumor weight change, dose: 31.25 mg/kg/injection, schedule: Q01DX001 (ip), vehicle: distilled water + Tween-80): 65 % of control
T/C (endpoint: median tumor weight change, dose: 62.5 mg/kg/injection, schedule: Q01DX001 (ip), vehicle: distilled water + Tween-80): 114 % of control
T/C (endpoint: median tumor weight change, dose: 125.0 mg/kg/injection, schedule: Q01DX001 (ip), vehicle: distilled water + Tween-80): 56 % of control

CCCCCCCC(=O)N/N=C(\CO)[C@]1(O)Cc2c(O)c3c(c(O)c2[C@@H](OC2CC(N)C(O)C(C)O2)C1)C(=O)c1c(OC)cccc1C3=O (stereo not given in full)
T/C (endpoint: median tumor weight (est.), dose: 1.5 mg/kg/injection, schedule: Q07DX005 (ip), vehicle: saline): 76 % of control
T/C (endpoint: median tumor weight (est.), dose: 3.0 mg/kg/injection, schedule: Q07DX005 (ip), vehicle: saline): 110 % of control
T/C (endpoint: median tumor weight (est.), dose: 6.0 mg/kg/injection, schedule: Q07DX005 (ip), vehicle: saline): 37 % of control
T/C (endpoint: median tumor weight (est.), dose: 12.0 mg/kg/injection, schedule: Q07DX005 (ip), vehicle: saline): 4 % of control

C[n+]1c(-c2cccc3ccccc23)c2cc(N)ccc2c2ccccc21
T/C (endpoint: median tumor weight (est.), dose: 3.12 mg/kg/injection, schedule: Q07DX005 (ip), vehicle: saline): 71 % of control
T/C (endpoint: median tumor weight (est.), dose: 6.25 mg/kg/injection, schedule: Q07DX005 (ip), vehicle: saline): 99 % of control
T/C (endpoint: median tumor weight (est.), dose: 12.5 mg/kg/injection, schedule: Q07DX005 (ip), vehicle: saline): 49 % of control

CCCC(=O)Oc1ccc(/C=N/NC(N)=S)nc1
T/C [3]: 279 % of control and 100 % of control
T/C [5]: 83 % of control and 101 % of control
T/C [7]: 121 % of control

CCSC(=O)N1c2ccc(OC)cc2C=CC1C#N (stereo not given)
T/C [3]: 93 % of control
T/C [4]: 93 % of control
T/C [5]: 69 % of control
T/C [6]: 90 % of control
T/C (endpoint: median tumor weight (est.), dose: 225.0 mg/kg/injection, schedule: Q07DX005 (ip), vehicle: saline with Tween-80): 59 % of control
T/C [7]: 97 % of control
T/C (endpoint: median tumor weight (est.), dose: 450.0 mg/kg/injection, schedule: Q07DX005 (ip), vehicle: saline with Tween-80): 95 % of control
T/C (endpoint: median tumor weight (est.), dose: 900.0 mg/kg/injection, schedule: Q07DX005 (ip), vehicle: saline with Tween-80): 78 % of control

Oc1ccc(O)cc1
T/C [8]: 36 % of control
T/C [9]: 76 % of control
T/C [10]: 68 % of control
T/C (endpoint: median tumor weight (est.), dose: 100.0 mg/kg/injection, schedule: Q07DX004 (ip), vehicle: saline): 57 % of control

O=C/C(Cl)=C(/Cl)C(=O)O
T/C (endpoint: median tumor weight (est.), dose: 2.5 mg/kg/injection, schedule: Q07DX005 (ip), vehicle: saline with Tween-80): 190 % of control
T/C (endpoint: median tumor weight (est.), dose: 5.0 mg/kg/injection, schedule: Q07DX005 (ip), vehicle: saline with Tween-80): 121 % of control
T/C (endpoint: median tumor weight (est.), dose: 10.0 mg/kg/injection, schedule: Q07DX005 (ip), vehicle: saline with Tween-80): 245 % of control

CNNCc1ccc(C(=O)NC(C)C)cc1
T/C (endpoint: median tumor weight (est.), dose: 16.0 mg/kg/injection, schedule: Q07DX005 (ip), vehicle: saline): 207 % of control and 101 % of control

COC(=O)Nc1cccc(-c2nc3ccc(NC(=O)OC)cc3c(=O)n2-c2ccccc2)c1
T/C (endpoint: mean tumor weight, dose: 50.0 mg/kg/injection, schedule: Q07DX006 (ip), vehicle: saline): 180 % of control
T/C (endpoint: mean tumor weight, dose: 100.0 mg/kg/injection, schedule: Q07DX006 (ip), vehicle: saline): 167 % of control
T/C (endpoint: median tumor weight (est.), dose: 12.5 mg/kg/injection, schedule: Q04DX005 (ip), vehicle: saline): 101 % of control
T/C [8]: 79 % of control
T/C [9]: 103 % of control
T/C (endpoint: median tumor weight (est.), dose: 50.0 mg/kg/injection, schedule: Q04DX005 (ip), vehicle: saline): 109 % of control
T/C [10]: 88 % of control
T/C (endpoint: median tumor weight (est.), dose: 200.0 mg/kg/injection, schedule: Q04DX005 (ip), vehicle: saline): 88 % of control
T/C (endpoint: median tumor weight (est.), dose: 200.0 mg/kg/injection, schedule: Q07DX004 (ip), vehicle: saline): 113 % of control
T/C (endpoint: median tumor weight (est.), dose: 400.0 mg/kg/injection, schedule: Q07DX004 (ip), vehicle: saline): 101 % of control
